Each structure is given as a SMILES string.

Chain of FGFR2 (P21802 22-821): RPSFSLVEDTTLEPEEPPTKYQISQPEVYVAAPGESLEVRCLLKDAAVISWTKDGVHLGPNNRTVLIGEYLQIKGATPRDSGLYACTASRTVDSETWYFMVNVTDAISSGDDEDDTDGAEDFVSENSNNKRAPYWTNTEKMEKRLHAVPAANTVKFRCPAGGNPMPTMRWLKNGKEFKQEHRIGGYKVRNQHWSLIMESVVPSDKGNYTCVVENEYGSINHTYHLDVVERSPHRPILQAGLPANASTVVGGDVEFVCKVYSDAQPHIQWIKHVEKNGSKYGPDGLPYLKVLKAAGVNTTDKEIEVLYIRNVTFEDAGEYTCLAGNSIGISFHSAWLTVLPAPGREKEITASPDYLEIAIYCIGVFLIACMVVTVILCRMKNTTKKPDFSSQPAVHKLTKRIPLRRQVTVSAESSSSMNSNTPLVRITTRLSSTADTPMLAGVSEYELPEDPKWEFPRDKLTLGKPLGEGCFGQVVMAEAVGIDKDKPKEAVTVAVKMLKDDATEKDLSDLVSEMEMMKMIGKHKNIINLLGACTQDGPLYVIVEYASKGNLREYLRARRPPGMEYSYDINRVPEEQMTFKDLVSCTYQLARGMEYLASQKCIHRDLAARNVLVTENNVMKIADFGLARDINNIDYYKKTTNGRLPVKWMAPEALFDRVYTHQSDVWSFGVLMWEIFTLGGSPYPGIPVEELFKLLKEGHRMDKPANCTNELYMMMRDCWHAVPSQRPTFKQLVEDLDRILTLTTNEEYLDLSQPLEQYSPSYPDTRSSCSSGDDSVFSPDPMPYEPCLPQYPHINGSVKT

The experiment addresses FGFR2 (Homo sapiens (Human), UniProt P21802). Put plainly: FGFR2 Biochemical Caliper Assay. The procedure:
Compounds of the present invention were also tested in a FGFR2 Biochemical Caliper Assay. Compounds were prepared in 10 mM DMSO solution and serially diluted into 11 concentrations by 3-fold dilution. […] 5 uL of ATP solution (100 uM) was added to start the reaction and the plate was incubated for 90 minutes, then 70 uL of stopping buffer (0.5M EDTA) was added to terminate the reaction. Each well was analyzed using EZ reader.
With `C=C(C)C(=O)Nc1ccc(-c2c(-c3ccc(C(=O)NCC4(C)CC4)cc3)c3c(N)ncnc3n2C)cc1` [Example 349], the IC50 (commonly the concentration that gives 50% inhibition) is under 100 nM.

`C=C(C)C(=O)Nc1ccc(-c2c(-c3ccc(S(=N)(=O)NC4CCCC4)cc3)c3c(N)ncnc3n2C)cc1` (stereo not drawn) [Example 350] yielded an IC50 of 1000 to 100000 nM.

The compound `C=C(C)C(=O)Nc1ccc(-c2c(-c3ccc(C(=O)N4CCC[C@@H]4C#N)cc3)c3c(N)ncnc3n2C)cc1` [Example 356] showed an IC50 of 100 to 250 nM.

For `C=C(C)C(=O)Nc1ccc(-c2c(-c3ccc(C(=O)NC4CCNC4)cc3)c3c(N)ncnc3n2C)cc1` (stereo not drawn) [Example 358], the 50% inhibitory concentration (IC50) was under 100 nM.

Compound `C=C(C)C(=O)Nc1ccc(-c2c(-c3ccc(C(=O)N4CCC[C@H]4C#N)cc3)c3c(N)ncnc3n2C)cc1` [Example 359] registered an IC50 of under 100 nM.

The compound `C=C(C)C(=O)Nc1ccc(-c2c(-c3ccc(C(=O)NCC4(C#N)CC4)cc3)c3c(N)ncnc3n2C)cc1` [Example 360] registered a half-inhibitory concentration (IC50) of under 100 nM.

On to `C=C(C)C(=O)Nc1ccc(-c2c(-c3ccc(C(=O)NCCF)cc3)c3c(N)ncnc3n2C)cc1` [Example 363], for which the IC50 was under 100 nM.

For `C=C(C)C(=O)Nc1ccc(-c2c(-c3ccc(C(=O)NC4CC(F)C4)cc3)c3c(N)ncnc3n2C)cc1` (stereo not drawn) [Example 364], the IC50 is under 100 nM.

`C=C(C)C(=O)Nc1ccc(-c2c(-c3ccc(C(=O)NCC4COC4)cc3)c3c(N)ncnc3n2C)cc1` [Example 366] yielded a 50% inhibitory concentration (IC50) of 100 to 250 nM.

`C=C(C)C(=O)Nc1ccc(-c2c(-c3ccc(C(=O)NCCC4COC4)cc3)c3c(N)ncnc3n2C)cc1` [Example 367] gave a concentration for half-maximal inhibition (IC50) of 250 to 1000 nM.

`C=C(C)C(=O)Nc1ccc(-c2c(-c3ccc(C(=O)NC4CCN(C)C4=O)cc3)c3c(N)ncnc3n2C)cc1` (stereo not drawn) [Example 389] returned an IC50 of 100 to 250 nM.

Take `C=C(C)C(=O)Nc1ccc(-c2c(-c3ccc(C(=O)N(C)C4CCN(C)C4=O)cc3)c3c(N)ncnc3n2C)cc1` (stereo not drawn) [Example 390]: the 50% inhibitory concentration (IC50) was 1000 to 100000 nM.

`C=C(C)C(=O)Nc1ccc(-c2c(-c3ccc(C(=O)NCC4COCCN4C)cc3)c3c(N)ncnc3n2C)cc1` (stereo not drawn) [Example 392]: the IC50 is 1000 to 100000 nM.

In turn, `C=C(C)C(=O)Nc1ccc(-c2c(C3=CCC(C(=O)NCC(C)(C)OC)CC3)c3c(N)ncnc3n2C)cc1` (stereo not drawn) [Example 394] displayed a concentration for half-maximal inhibition (IC50) of 250 to 1000 nM.

In the case of `C=C(C)C(=O)Nc1ccc(-c2c(-c3ccc(C(=O)NC4CCOC4)c(F)c3)c3c(N)ncnc3n2C)cc1` (stereo not drawn) [Example 396], the IC50 lay within 100 to 250 nM.

In turn, `C=C(C)C(=O)Nc1ccc(-c2c(-c3ccc(C(=O)NC4CCOC4)c(OC)c3)c3c(N)ncnc3n2C2COC2)cc1` (stereo not drawn) [Example 400] had an IC50 of 100 to 250 nM.

As for `C=C(C)C(=O)Nc1ccc(-c2c(C3=CCC(C(=O)NCC4CCC4)CC3)c3c(N)ncnc3n2C)cc1` (stereo not drawn) [Example 402], the 50% inhibitory concentration (IC50) fell in the range of 100 to 250 nM.

`C=C(C)C(=O)Nc1ccc(-c2c(-c3ccc(Oc4cccc(C)n4)cc3)c3c(N)ncnc3n2C)cc1COC` [Example 403] returned a concentration for half-maximal inhibition (IC50) of 100 to 250 nM.

Take `C=C(C)C(=O)Nc1ccc(-c2c(C3=CCC(C(=O)N4CCCC[C@@H]4C)CC3)c3c(N)ncnc3n2C)cc1` (stereo partly drawn) [Example 404]: the IC50 lay in the range of 100 to 250 nM.

As to `Cc1cccc(Oc2ccc(-c3c(-c4cnc(C#N)nc4)n(C)c4ncnc(N)c34)cc2)n1` [Example 405], the half-maximal inhibitory concentration (IC50) was under 100 nM.

In turn, `C=C(C)C(=O)Nc1ccc(-c2c(-c3ccc(C(=O)N4CCCC4)cc3)c3c(N)ncnc3n2C)cc1C` [Example 407] displayed an IC50 of 1000 to 100000 nM.

In turn, `C=C(C)C(=O)Nc1ccc(-c2c(-c3ccc(C(=O)N(C)C(CF)CF)cc3)c3c(N)ncnc3n2C)cc1` [Example 412] had an IC50 of under 100 nM.

On to `C=C(C)C(=O)N(C)c1ccc(-c2c(-c3ccc(Oc4cccc(C)n4)cc3)c3c(N)ncnc3n2C)cc1` [Example 414], for which the half-inhibitory concentration (IC50) lay within 100 to 250 nM.

For `C=C(C)C(=O)Nc1ccc(-c2c(C3=CC[C@H](C(=O)N4CC5CCC(C5)C4)CC3)c3c(N)ncnc3n2C)cc1` [Example 420], the 50% inhibitory concentration (IC50) was 1000 to 100000 nM.

`C=C(C)C(=O)N(C)c1ccc(-c2c(-c3ccc(C(=O)NCC(C)(C)OC)cc3)c3c(N)ncnc3n2C)cc1` [Example 421] yielded an IC50 of 1000 to 100000 nM.

`C=C(C)C(=O)Nc1ccc(-c2c(-c3ccc(C(=O)N4CCCC4)nc3)c3c(N)ncnc3n2C)cc1` [Example 422]: the IC50 fell in the range of 1000 to 100000 nM.

On to `C=C(C)C(=O)Nc1ccc(-c2c(-c3ccc(C(=O)N(CCN)CC(F)(F)F)cc3)c3c(N)ncnc3n2C)cc1` [Example 430], for which the IC50 is 250 to 1000 nM.

For `C=C(C)C(=O)Nc1ccc(-c2c(-c3ccc(C(=O)NCC(C)(C)OC)nc3)c3c(N)ncnc3n2C)cc1` [Example 438], the IC50 was in the range of 1000 to 100000 nM.

As to `C=C(C)C(=O)Nc1ccc(-c2c(-c3cnn(Cc4cccc(C)n4)c3)c3c(N)ncnc3n2C)cc1` [Example 439], the concentration for half-maximal inhibition (IC50) lay in the range of 1000 to 100000 nM.

The compound `C=C(C)C(=O)Nc1ccc(-c2c(-c3ccc(C(=O)N(C)CC4(OC)CC4)cc3)c3c(N)ncnc3n2C)cc1` [Example 440] registered an IC50 of 1000 to 100000 nM.

`C=C(C)C(=O)Nc1ccc(-c2c(-c3ccc(Oc4ncc(F)cn4)c(N(C)C)c3)c3c(N)ncnc3n2C)cc1` [Example 443] registered a concentration for half-maximal inhibition (IC50) of 1000 to 100000 nM.

In turn, `C=C(C)C(=O)Nc1ccc(-c2c(-c3ccc(Oc4ncc(OC)cn4)cc3)c3c(N)ncnc3n2C)cc1` [Example 450] returned a concentration for half-maximal inhibition (IC50) of 250 to 1000 nM.

As for `C=C(C)C(=O)Nc1ccc(-c2c(-c3ccc(Oc4ncc(F)cn4)nc3)c3c(N)ncnc3n2C)cc1` [Example 453], the IC50 fell in the range of 1000 to 100000 nM.

For `C=C(C)C(=O)Nc1ccc(-c2c(-c3ccc(C(=O)N(CCN(C)C)CC(F)(F)F)cc3)c3c(N)ncnc3n2C)cc1` [Example 454], the half-maximal inhibitory concentration (IC50) was in the range of 250 to 1000 nM.

As to `C=C(C)C(=O)Nc1ccc(-c2c(-c3ccc(Oc4ncc(N(C)C)cn4)c(F)c3)c3c(N)ncnc3n2C)cc1` [Example 455], the half-inhibitory concentration (IC50) lay within 250 to 1000 nM.

On to `C=C(C)C(=O)Nc1ccc(-c2c(-c3ccc(Oc4ncc(N(C)C)cn4)cc3)c3c(N)ncnc3n2C)cc1` [Example 456], for which the half-maximal inhibitory concentration (IC50) was 250 to 1000 nM.

As for `C=C(C)C(=O)Nc1ccc(-c2c(-c3ccc(C(=O)NCC4CCC4)c(C(C)=O)c3)c3c(N)ncnc3n2C)cc1` [Example 457], the IC50 lay in the range of 100 to 250 nM.

As for `C=C(C)C(=O)Nc1ccc(-c2c(-c3ccc(C(=O)N(C)CC4(F)COC4)cc3)c3c(N)ncnc3n2C)c(F)c1` [Example 467], the IC50 was 100 to 250 nM.

The compound `C=C(C)C(=O)Nc1ccc(-c2c(-c3ccc(C(=O)N(C)CC4CCOC4)cc3)c3c(N)ncnc3n2C)cc1` (stereo not drawn) [Example 469] gave an IC50 of 250 to 1000 nM.

`C=C(C)C(=O)Nc1ccc(-c2c(-c3cc(F)c(C(=O)NCC(C)(C)OC)c(F)c3)c3c(N)ncnc3n2C)cc1` [Example 470]: the IC50 lay within 100 to 250 nM.

`C=C(C)C(=O)Nc1ccc(-c2c(-c3ccc(C(=O)N4CCCC4)cc3)c3c(N)ncnc3n2C)c(CC)c1` [Example 477] came in with an IC50 of 100 to 250 nM.

`C=C(C)C(=O)Nc1ccc(-c2c(-c3ccc(C(=O)N4CCCC4)cc3)c3c(N)ncnc3n2C)c(C2CC2)c1` [Example 478]: the IC50 lay within 100 to 250 nM.

Consider `C=C(C)C(=O)Nc1ccc(-c2c(-c3cnc(Oc4cccc(C)n4)cn3)c3c(N)ncnc3n2C)cc1` [Example 480], for which the IC50 lay within 250 to 1000 nM.

`C=C(C)C(=O)Nc1ccc(-c2c(-c3ccc(C(=O)N(C)Cc4ncno4)cc3)c3c(N)ncnc3n2C)cc1` [Example 481] displayed an IC50 of 1000 to 100000 nM.

`C=C(C)C(=O)Nc1ccc(-c2c(-c3cnc(Oc4cccc(C)n4)nc3)c3c(N)ncnc3n2C)cc1` [Example 483] registered a concentration for half-maximal inhibition (IC50) of 1000 to 100000 nM.

For the origin of these results see US11780845B2 (Relay Therapeutics, Inc., priority 2019, dated 2023).
